Like-named read-outs stand apart in the source and are kept apart here.
How the values were obtained:
D2SR [1] = molecular target: T1, D2SR (Homo sapiens, UniProt P14416); assay: Radioligand competition, [3H]spiperone, CHO cell membranes
porcine D1R = molecular target: T2, porcine D1R (Sus scrofa, UniProt P50130); assay: Radioligand competition, [3H]SCH23390, porcine striatum homogenates; format: binding; details: [3H]SCH23,390; mean of n experiments; read-out: Ki pD1R
T2 construct: homogenates obtained from porcine striatum; from tissue; host or cells: porcine striatum homogenate
T2 sequence (P50130 whole entry): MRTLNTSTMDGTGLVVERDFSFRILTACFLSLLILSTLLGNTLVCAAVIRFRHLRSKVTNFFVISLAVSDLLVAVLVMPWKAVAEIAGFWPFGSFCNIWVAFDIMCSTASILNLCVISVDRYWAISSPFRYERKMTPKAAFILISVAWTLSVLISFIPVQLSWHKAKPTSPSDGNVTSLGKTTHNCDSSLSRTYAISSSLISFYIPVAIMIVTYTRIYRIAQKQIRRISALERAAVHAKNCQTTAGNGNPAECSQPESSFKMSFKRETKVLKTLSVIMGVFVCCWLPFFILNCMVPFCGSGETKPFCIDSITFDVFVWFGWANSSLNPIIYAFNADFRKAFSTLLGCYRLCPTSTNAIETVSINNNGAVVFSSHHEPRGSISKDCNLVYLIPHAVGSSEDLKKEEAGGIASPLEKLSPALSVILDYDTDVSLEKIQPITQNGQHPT

human D3R = human D3R (Homo sapiens, UniProt P35462); assay: Radioligand competition, [3H]spiperone, CHO cell membranes
Sequence of human D3R (P35462 whole entry): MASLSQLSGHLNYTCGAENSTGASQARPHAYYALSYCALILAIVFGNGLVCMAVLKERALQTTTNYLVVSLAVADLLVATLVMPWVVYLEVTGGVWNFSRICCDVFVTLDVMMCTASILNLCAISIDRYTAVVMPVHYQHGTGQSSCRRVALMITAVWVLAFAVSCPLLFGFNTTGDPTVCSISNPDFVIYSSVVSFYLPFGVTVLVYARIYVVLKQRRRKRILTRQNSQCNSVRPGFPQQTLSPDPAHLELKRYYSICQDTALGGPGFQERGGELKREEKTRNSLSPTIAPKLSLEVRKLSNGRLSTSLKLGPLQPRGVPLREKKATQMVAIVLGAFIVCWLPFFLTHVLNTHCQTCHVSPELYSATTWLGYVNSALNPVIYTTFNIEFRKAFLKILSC

human D2LR = human D2LR (Homo sapiens, UniProt P14416); assay: as above
Sequence of human D2LR (P14416 whole entry): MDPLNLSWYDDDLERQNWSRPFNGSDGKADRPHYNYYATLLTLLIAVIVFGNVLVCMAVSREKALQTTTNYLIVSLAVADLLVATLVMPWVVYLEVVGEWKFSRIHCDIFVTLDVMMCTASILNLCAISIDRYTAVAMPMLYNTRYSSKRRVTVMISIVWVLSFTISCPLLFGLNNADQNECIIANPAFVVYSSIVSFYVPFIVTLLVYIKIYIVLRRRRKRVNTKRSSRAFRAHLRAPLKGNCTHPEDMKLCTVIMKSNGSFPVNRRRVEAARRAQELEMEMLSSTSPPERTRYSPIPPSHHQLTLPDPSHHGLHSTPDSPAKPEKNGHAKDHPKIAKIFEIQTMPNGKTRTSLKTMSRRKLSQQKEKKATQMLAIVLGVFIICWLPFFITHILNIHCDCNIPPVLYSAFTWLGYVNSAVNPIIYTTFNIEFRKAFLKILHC

human D4R = molecular target: T3, human D4R (Homo sapiens, UniProt P21917); assay: as above
T3 sequence (P21917 1-419): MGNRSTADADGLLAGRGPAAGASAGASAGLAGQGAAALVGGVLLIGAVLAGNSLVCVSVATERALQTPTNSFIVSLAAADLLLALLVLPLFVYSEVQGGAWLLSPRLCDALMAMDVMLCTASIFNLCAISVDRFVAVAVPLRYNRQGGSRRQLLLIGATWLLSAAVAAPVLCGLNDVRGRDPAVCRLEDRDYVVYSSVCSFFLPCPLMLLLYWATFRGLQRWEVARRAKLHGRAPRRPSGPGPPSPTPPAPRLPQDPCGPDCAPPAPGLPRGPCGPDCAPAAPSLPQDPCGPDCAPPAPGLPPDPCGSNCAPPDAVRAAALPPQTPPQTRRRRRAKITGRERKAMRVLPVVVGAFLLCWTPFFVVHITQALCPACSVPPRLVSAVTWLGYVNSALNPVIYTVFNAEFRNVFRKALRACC

porcine 5-HT1AR = molecular target: T4, porcine 5-HT1AR (Sus scrofa, UniProt A0A4X1UTF5); assay: Radioligand competition, [3H]WAY100,635, porcine cerebral cortex homogenates; format: binding; details: mean of n experiments, read-out: Ki p5-HT1AR
T4 construct: homogenates of porcine cerebral cortex; from tissue; host or cells: porcine cerebral cortex homogenate
T4 sequence (A0A4X1UTF5 1-422): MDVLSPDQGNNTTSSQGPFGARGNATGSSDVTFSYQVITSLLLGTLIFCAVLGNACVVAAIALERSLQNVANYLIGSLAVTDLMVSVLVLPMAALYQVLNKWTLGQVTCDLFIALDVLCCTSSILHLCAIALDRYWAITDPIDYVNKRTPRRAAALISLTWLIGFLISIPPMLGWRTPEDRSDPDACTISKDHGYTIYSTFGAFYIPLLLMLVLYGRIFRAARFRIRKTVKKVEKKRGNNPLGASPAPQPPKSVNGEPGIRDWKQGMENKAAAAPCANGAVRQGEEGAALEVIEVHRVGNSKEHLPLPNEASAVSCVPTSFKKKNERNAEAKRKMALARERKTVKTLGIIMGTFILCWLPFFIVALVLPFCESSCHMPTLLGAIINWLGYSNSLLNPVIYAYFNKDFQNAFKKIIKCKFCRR

porcine α1-AR = assay: Radioligand competition, [3H]prazosin, porcine cerebral cortex homogenates; details: read-out: Ki pα1-AR, mean of n experiments
porcine 5-HT2R = molecular target: T5, porcine 5-HT2R (Sus scrofa, UniProt P50129); assay: Radioligand competition, [3H]ketanserin, porcine cerebral cortex homogenates; format: binding; details: mean of n experiments, read-out: Ki p5-HT2R
T5 construct: homogenates of porcine cerebral cortex; from tissue; host or cells: porcine cerebral cortex homogenate
T5 sequence (P50129 whole entry): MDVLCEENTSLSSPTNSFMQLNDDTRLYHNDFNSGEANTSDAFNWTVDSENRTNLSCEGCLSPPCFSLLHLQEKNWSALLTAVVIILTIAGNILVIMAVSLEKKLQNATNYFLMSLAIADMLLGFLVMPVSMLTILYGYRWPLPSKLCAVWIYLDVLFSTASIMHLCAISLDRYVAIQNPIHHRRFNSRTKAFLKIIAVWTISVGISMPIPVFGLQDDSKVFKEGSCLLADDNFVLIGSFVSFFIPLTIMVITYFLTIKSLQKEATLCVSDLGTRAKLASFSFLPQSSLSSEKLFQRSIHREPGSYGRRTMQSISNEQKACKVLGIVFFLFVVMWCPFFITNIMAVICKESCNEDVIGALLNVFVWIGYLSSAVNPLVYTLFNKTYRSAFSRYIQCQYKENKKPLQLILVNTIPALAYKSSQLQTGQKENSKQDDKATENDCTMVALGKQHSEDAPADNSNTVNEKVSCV

D2SR [2] = molecular target: T1, D2SR; assay: β-arrestin-2 recruitment (Pathhunter, DiscoverX), HEK293 cells, GRK2 coexpressed; format: cell-based; set-up: expressed in transfected cells; details: for Emax: read-out: Emax β-arrestin-2 recruitment at D2SR, reference agonist quinpirole
secNluc-D3R = secNluc-D3R (UniProt P35462+Q9GV45, A31E/A60N/A81I/F95D/I117V/K70R/L54V/L99Q/M102K/N193R/P142E/Q151K/Q38R/Q45L/V71I/Y165I); assay: NanoBRET association and dissociation kinetics, membranes; format: binding
Sequence of secNluc-D3R (Q9GV45+P35462 fused with the stated changes): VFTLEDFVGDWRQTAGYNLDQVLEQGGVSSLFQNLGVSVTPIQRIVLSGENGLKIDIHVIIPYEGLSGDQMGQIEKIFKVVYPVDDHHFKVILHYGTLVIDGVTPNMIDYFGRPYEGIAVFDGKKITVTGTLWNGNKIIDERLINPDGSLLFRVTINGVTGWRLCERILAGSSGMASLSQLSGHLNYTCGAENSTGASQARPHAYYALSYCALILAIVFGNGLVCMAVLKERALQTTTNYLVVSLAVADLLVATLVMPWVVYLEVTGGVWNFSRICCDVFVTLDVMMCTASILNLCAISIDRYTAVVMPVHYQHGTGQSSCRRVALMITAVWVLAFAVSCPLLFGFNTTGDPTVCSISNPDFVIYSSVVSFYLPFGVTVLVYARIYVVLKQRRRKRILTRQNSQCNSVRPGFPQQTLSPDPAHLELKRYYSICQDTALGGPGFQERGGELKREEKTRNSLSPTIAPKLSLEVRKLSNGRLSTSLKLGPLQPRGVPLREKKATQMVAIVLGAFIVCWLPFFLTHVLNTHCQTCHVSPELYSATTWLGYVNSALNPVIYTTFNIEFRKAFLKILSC
Procedure: (a) Association of 10a at room temperature was measured by NanoBRET using secNluc-D3R membrane preparations and threefold serial dilutions of 10a (3.3–30 nM). […] Obtained IC50 values were transformed into Ki values applying the equation of Cheng and Prusoff[52]. […] Kinetic assays were monitored at room temperature and minimal possible cycle time of the CLARIOstar was used for each measurement. Data was fitted to one phase association and dissociation equations in PRISM6.0 to determine the kinetic constants. […] Addition of furimazine (1:5,000) and BRET measurements were carried out as described above. Data analysis was performed using the one site—fit Ki equation in PRISM6.0 to determine the inhibition constants (Ki) of the unlabeled ligands.

human isoform of D1R = human isoform of D1R (Homo sapiens, UniProt P21728); assay: Radioligand competition at human isoform of D1R; format: binding; details: assay performed with human isoform of D1R; [3H]SCH23,390 column
Sequence of human isoform of D1R (P21728 whole entry, canonical isoform): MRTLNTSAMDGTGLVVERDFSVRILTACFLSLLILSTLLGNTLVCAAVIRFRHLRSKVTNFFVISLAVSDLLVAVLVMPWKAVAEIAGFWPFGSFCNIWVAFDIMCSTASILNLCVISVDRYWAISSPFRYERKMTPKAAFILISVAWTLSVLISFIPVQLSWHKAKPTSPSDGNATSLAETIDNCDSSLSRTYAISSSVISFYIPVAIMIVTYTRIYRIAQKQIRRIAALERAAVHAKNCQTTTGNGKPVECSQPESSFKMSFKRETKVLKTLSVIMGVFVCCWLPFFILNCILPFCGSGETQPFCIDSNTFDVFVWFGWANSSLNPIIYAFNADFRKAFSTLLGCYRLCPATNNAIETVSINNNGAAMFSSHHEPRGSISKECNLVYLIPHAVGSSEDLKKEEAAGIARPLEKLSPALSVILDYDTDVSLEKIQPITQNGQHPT
Procedure: Supplementary Table S1. Binding affinities of the test compounds. Binding affinities of the test compounds for porcine D1R, 5-HT 1AR, 5-HT 2R and α1-AR were determined by radioligand […]
a Data are indicated as m ean (and range) of (n) individual experim ents, each per form ed in triplicate; b assay perform ed with hum an isoform of D1R; c n. d. K i not determ ined as no com plete ligand displacem ent occurred;

[3] = read-out: EC50 β-arrestin-2 recruitment at D2SR, mean ± SEM
[4] = read-out: Ki hD2SR, [3H]spiperone, mean ± SEM
[5] = read-out: Ki hD3R, [3H]spiperone, mean ± SEM
[6] = read-out: Ki hD2LR, [3H]spiperone, mean ± SEM
[7] = read-out: Ki hD4R, [3H]spiperone, mean ± SEM

T1 sequence (P14416 1-414 isoform P14416-2): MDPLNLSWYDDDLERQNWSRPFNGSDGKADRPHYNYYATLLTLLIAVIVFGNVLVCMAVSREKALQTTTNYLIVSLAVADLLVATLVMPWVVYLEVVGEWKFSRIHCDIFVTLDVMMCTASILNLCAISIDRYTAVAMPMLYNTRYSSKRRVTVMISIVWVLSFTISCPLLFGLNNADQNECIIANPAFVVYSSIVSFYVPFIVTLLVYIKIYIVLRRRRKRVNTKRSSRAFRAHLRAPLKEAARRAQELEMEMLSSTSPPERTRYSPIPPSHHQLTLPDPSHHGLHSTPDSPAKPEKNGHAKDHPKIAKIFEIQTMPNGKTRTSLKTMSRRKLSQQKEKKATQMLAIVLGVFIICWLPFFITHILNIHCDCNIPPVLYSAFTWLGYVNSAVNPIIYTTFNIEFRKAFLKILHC

SMILES	Ki (D2SR [1]) [nM]	Ki (porcine D1R) [nM]	Ki (human D3R) [nM]	Ki (human D2LR) [nM]	Ki (human D4R) [nM]	Ki (porcine 5-HT1AR) [nM]	Ki (porcine α1-AR) [nM]	Ki (porcine 5-HT2R) [nM]	also measured
CCCN(CCCCc1cn(-c2ccc(C#N)cc2)nn1)C1Cc2ccccc2C1 [2a]	6.5 ± 1.7	3000	0.41 ± 0.09	8.7 ± 2.5	33 ± 7	52	87	850	
N#Cc1ccc(-n2cc(CCCCN3CCN(c4cccc(Cl)c4Cl)CC3)nn2)cc1 [2b]	6.3 ± 0.2	540	1 ± 0.2	15 ± 5	120 ± 61	260	4.9	1100	
COc1ccccc1N1CCN(CCCCc2cn(-c3ccc(C#N)cc3)nn2)CC1 [2c]	34 ± 8	1100	13 ± 4	77 ± 17	140 ± 10	25	2.4	600	
CC(C)(C)c1nc(N2CCN(CCCCc3cn(-c4ccc(C#N)cc4)nn3)CC2)cc(C(F)(F)F)n1 [2d]	350 ± 30	5500	9.5 ± 1.9	360 ± 60	5000	4100	1100	4400	
CCCN(CCCCc1cn(-c2ccc(CNS(=O)(=O)c3cccc4c(N(C)C)cccc34)cc2)nn1)C1Cc2ccccc2C1 [4a]	1.7 ± 0.3	590	0.29 ± 0.02	5.2 ± 0.6	27 ± 3	27	29	220	
CN(C)c1cccc2c(S(=O)(=O)NCc3ccc(-n4cc(CCCCN5CCN(c6cccc(Cl)c6Cl)CC5)nn4)cc3)cccc12 [4b]	5.1 ± 1.7	190	1.9 ± 0.7	20 ± 8	59 ± 20	78	7.9	390	
COc1ccccc1N1CCN(CCCCc2cn(-c3ccc(CNS(=O)(=O)c4cccc5c(N(C)C)cccc45)cc3)nn2)CC1 [4c]	8.4 ± 3.4	180	6.5 ± 2.3	17 ± 7	32 ± 6	55	1.1	450	
CN(C)c1cccc2c(S(=O)(=O)NCc3ccc(-n4cc(CCCCN5CCN(c6cc(C(F)(F)F)nc(C(C)(C)C)n6)CC5)nn4)cc3)cccc12 [4d]	6000	> 10000	11 ± 2	7600	> 10000	> 10000	3000	> 10000	decrease of D2SR affinity by introduction of the dansyl moiety (factor) (D2SR [1]; 4d versus 2d): ~ 20; decrease of D2LR affinity by introduction of the dansyl moiety (factor) (human D2LR; 4d versus 2d): ~ 20
CCCN(CCCCc1cn(-c2ccc(C(=O)NCCCN)cc2)nn1)C1Cc2ccccc2C1 [7a]	1.8 ± 0.2	3600	0.26 ± 0.03	3.5 ± 0.4	8.5 ± 0.8	13	37	400	
CCCN(CCCCc1cn(-c2ccc(C(=O)NCCCNS(=O)(=O)c3cccc4c(N(C)C)cccc34)cc2)nn1)C1Cc2ccccc2C1 [8a]	0.44 ± 0.12	1100	0.32 ± 0.05	1.2 ± 0.2	10 ± 4	70	22	690	EC50 (D2SR [2]; mean ± SEM): 51 ± 11 nM; Emax (D2SR [2]): 98 ± 2%
CN(C)c1cccc2c(S(=O)(=O)NCCCNC(=O)c3ccc(-n4cc(CCCCN5CCN(c6cccc(Cl)c6Cl)CC5)nn4)cc3)cccc12 [8b]	3.6 ± 1.6	340	1.9 ± 0.9	13 ± 6	130 ± 10	170	23	380	
CCCN(CCCCc1cn(-c2ccc(CNC(=O)c3ccc(-c4c5ccc(=NCC(F)(F)F)cc-5oc5cc(NCC(F)(F)F)ccc45)c(C(=O)O)c3)cc2)nn1)C1Cc2ccccc2C1 [10a]	21 ± 4		0.97 ± 0.23	46 ± 7	56 ± 4		100		EC50 (D2SR [2]; mean ± SEM): 410 ± 70 nM; Emax (D2SR [2]): 89 ± 3%; koff (secNluc-D3R): 0.0009 s⁻¹; residence time (secNluc-D3R): 19 ± 1 min; kon (secNluc-D3R; read-out: Kon association rate constant): 170000 M⁻¹ s⁻¹; Ki (human isoform of D1R): 310 nM
CCCN(CCCCc1cn(-c2ccc(C(=O)NCCCNC(=O)Cc3ccc4c(c3)C(C)(C)C3=C5C=C6C7=[N+](CCC6OC5CCN34)c3ccc(S(=O)(=O)[O-])cc3C7(C)C)cc2)nn1)C1Cc2ccccc2C1 (stereo not drawn) [10b]		5100				120	87	330	EC50 (D2SR [2]; [3]): 410 ± 60 nM; Emax (D2SR [2]): 79 ± 3%; Ki (D2SR [1]; [4]): 4.8 ± 1 nM; Ki (human D3R; [5]): 0.9 ± 0.26 nM; Ki (human D2LR; [6]): 10 ± 2 nM; Ki (human D4R; [7]): 50 ± 7 nM
CCCN(CCCCc1cn(-c2ccc(C(=O)NCCCNC(=O)c3ccc(-c4c5ccc(=N)c(S(=O)(=O)O)c-5oc5c(S(=O)(=O)O)c(N)ccc45)c(C(=O)O)c3)cc2)nn1)C1Cc2ccccc2C1 [10c]		5100				85	150	2200	EC50 (D2SR [2]; [3]): 100 ± 20 nM; Emax (D2SR [2]): 93 ± 3%; Ki (D2SR [1]; [4]): 15 ± 4 nM; Ki (human D3R; [5]): 0.76 ± 0.11 nM; Ki (human D2LR; [6]): 23 ± 5 nM; Ki (human D4R; [7]): 47 ± 9 nM
